Assay results from PubChem BioAssay (NCI).
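48-hour exposure; five concentrations; linearly interpolated endpoints. Abbreviation: GI50, concentration required for 50% inhibition of growth. Definition used: TGI = concentration required for complete inhibition of growth.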

Assays:
Assay in all cases: growth of human tumour cells (NCI), 48 h
CAKI-1 renal = system: CAKI-1 renal
HL-60(TB) leukemia = system: HL-60(TB) leukemia
SK-MEL-2 melanoma = system: SK-MEL-2 melanoma
LOX IMVI melanoma = system: LOX IMVI melanoma
OVCAR-5 ovarian = system: OVCAR-5 ovarian
MOLT-4 leukemia = system: MOLT-4 leukemia
SF-539 CNS = system: SF-539 CNS
COLO 205 colon = system: COLO 205 colon
TK-10 renal = system: TK-10 renal
SNB-75 CNS = system: SNB-75 CNS
SK-OV-3 ovarian = system: SK-OV-3 ovarian
MDA-MB-231 breast = system: MDA-MB-231 breast
786-0 renal = system: 786-0 renal
HOP-62 NSCLC = system: HOP-62 NSCLC
SW-620 colon = system: SW-620 colon
OVCAR-3 ovarian = system: OVCAR-3 ovarian
SK-MEL-5 melanoma = system: SK-MEL-5 melanoma
HOP-92 NSCLC = system: HOP-92 NSCLC
SK-MEL-28 melanoma = system: SK-MEL-28 melanoma
MALME-3M melanoma = system: MALME-3M melanoma
HCT-15 colon = system: HCT-15 colon
NCI-H460 lung = system: NCI-H460 lung
RPMI-8226 leukemia = system: RPMI-8226 leukemia
NCI/ADR-RES ovarian = system: NCI/ADR-RES ovarian
NCI-H23 lung = system: NCI-H23 lung
IGROV1 ovarian = system: IGROV1 ovarian
ACHN renal = system: ACHN renal
SN12C renal = system: SN12C renal
MCF7 breast = system: MCF7 breast
DU-145 prostate = system: DU-145 prostate
HT29 colon = system: HT29 colon
CCRF-CEM leukemia = system: CCRF-CEM leukemia
NCI-H522 lung = system: NCI-H522 lung
KM12 colon = system: KM12 colon
BT-549 breast = system: BT-549 breast
HCT-116 colon = system: HCT-116 colon
MDA-MB-435 = system: MDA-MB-435
A549 NSCLC = system: A549 NSCLC
UACC-62 melanoma = system: UACC-62 melanoma
SR leukemia = system: SR leukemia
SNB-19 CNS = system: SNB-19 CNS
M14 melanoma = system: M14 melanoma
PC-3 prostate = system: PC-3 prostate
SF-295 CNS = system: SF-295 CNS
HS 578T breast = system: HS 578T breast
U251 CNS = system: U251 CNS
EKVX NSCLC = system: EKVX NSCLC
OVCAR-8 ovarian = system: OVCAR-8 ovarian
T-47D breast = system: T-47D breast
OVCAR-4 ovarian = system: OVCAR-4 ovarian
SF-268 CNS = system: SF-268 CNS
A498 renal = system: A498 renal
K-562 leukemia = system: K-562 leukemia
NCI-H226 lung = system: NCI-H226 lung
UACC-257 melanoma = system: UACC-257 melanoma

With `COc1ccc(N=C2CSc3nnc(-c4cc(F)c(Cl)cc4Cl)n3N2)cc1` the GI50 (CAKI-1 renal) was 1.52 µM, the TGI (CAKI-1 renal) was 4.49 µM and the GI50 (HL-60(TB) leukemia) was 0.331 µM. The TGI (HL-60(TB) leukemia) was 0.636 µM, the GI50 (SK-MEL-2 melanoma) was 2.75 µM and the TGI (SK-MEL-2 melanoma) was 13.4 µM. It also gave a GI50 (LOX IMVI melanoma) of 0.897 µM, a TGI (LOX IMVI melanoma) of 11.1 µM and a GI50 (OVCAR-5 ovarian) of 1.9 µM. For the same compound, the TGI (OVCAR-5 ovarian) was 4.57 µM, the GI50 (MOLT-4 leukemia) was 0.486 µM and the TGI (MOLT-4 leukemia) was 14.9 µM. For the same compound, the GI50 (SF-539 CNS) was 1.05 µM, the TGI (SF-539 CNS) was 2.63 µM and the GI50 (COLO 205 colon) was 1.81 µM. It also gave a TGI (COLO 205 colon) of 16 µM, a GI50 (TK-10 renal) of 1.4 µM and a TGI (TK-10 renal) of 4.06 µM. The GI50 (SNB-75 CNS) was 0.355 µM, the TGI (SNB-75 CNS) was 1.58 µM and the GI50 (SK-OV-3 ovarian) was 0.987 µM. The TGI (SK-OV-3 ovarian) was 5.39 µM, the GI50 (MDA-MB-231 breast) was 1.41 µM and the TGI (MDA-MB-231 breast) was 12.8 µM. The GI50 (786-0 renal) was 1.04 µM, the TGI (786-0 renal) was 4 µM and the GI50 (HOP-62 NSCLC) was 0.458 µM. The TGI (HOP-62 NSCLC) was 2.77 µM, the GI50 (SW-620 colon) was 0.553 µM and the TGI (SW-620 colon) was 13.1 µM. For the same compound, the GI50 (OVCAR-3 ovarian) was 0.466 µM, the TGI (OVCAR-3 ovarian) was 2.02 µM and the GI50 (SK-MEL-5 melanoma) was 1.28 µM. The TGI (SK-MEL-5 melanoma) was 11.1 µM, the GI50 (HOP-92 NSCLC) was 2.83 µM and the TGI (HOP-92 NSCLC) was 19.1 µM. For the same compound, the GI50 (SK-MEL-28 melanoma) was 2.38 µM, the TGI (SK-MEL-28 melanoma) was 21.4 µM and the GI50 (MALME-3M melanoma) was 0.529 µM. For the same compound, the TGI (MALME-3M melanoma) was 3.77 µM, the GI50 (HCT-15 colon) was 1.03 µM and the TGI (HCT-15 colon) was 17.2 µM. The GI50 (NCI-H460 lung) was 1.07 µM, the TGI (NCI-H460 lung) was 12.3 µM and the GI50 (RPMI-8226 leukemia) was 1.41 µM. For the same compound, the TGI (RPMI-8226 leukemia) was 11 µM, the GI50 (NCI/ADR-RES ovarian) was 2.96 µM and the TGI (NCI/ADR-RES ovarian) was > 100 µM. It also gave a GI50 (NCI-H23 lung) of 2.24 µM, a TGI (NCI-H23 lung) of 15.9 µM and a GI50 (IGROV1 ovarian) of 0.187 µM. For the same compound, the TGI (IGROV1 ovarian) was 0.595 µM, the GI50 (ACHN renal) was 2.33 µM and the TGI (ACHN renal) was 11.5 µM. It also gave a GI50 (SN12C renal) of 2.61 µM, a TGI (SN12C renal) of 14.4 µM and a GI50 (MCF7 breast) of 0.464 µM. It also gave a TGI (MCF7 breast) of 19.8 µM, a GI50 (DU-145 prostate) of 1.47 µM and a TGI (DU-145 prostate) of 3.87 µM. For the same compound, the GI50 (HT29 colon) was 0.395 µM, the TGI (HT29 colon) was 2.11 µM and the GI50 (CCRF-CEM leukemia) was 0.674 µM. For the same compound, the TGI (CCRF-CEM leukemia) was > 100 µM, the GI50 (NCI-H522 lung) was 0.296 µM and the TGI (NCI-H522 lung) was 0.885 µM. For the same compound, the GI50 (KM12 colon) was 0.469 µM, the TGI (KM12 colon) was 3.45 µM and the GI50 (BT-549 breast) was 1.77 µM. The TGI (BT-549 breast) was 24.4 µM, the GI50 (HCT-116 colon) was 0.43 µM and the TGI (HCT-116 colon) was 1.96 µM. The GI50 (MDA-MB-435) was 0.208 µM, the TGI (MDA-MB-435) was 0.785 µM and the GI50 (A549 NSCLC) was 1.5 µM. The TGI (A549 NSCLC) was 4.42 µM, the GI50 (UACC-62 melanoma) was 0.576 µM and the TGI (UACC-62 melanoma) was 23.2 µM. For the same compound, the GI50 (SR leukemia) was 0.33 µM, the TGI (SR leukemia) was 0.799 µM and the GI50 (SNB-19 CNS) was 0.776 µM. It also gave a TGI (SNB-19 CNS) of 18.9 µM, a GI50 (M14 melanoma) of 0.572 µM and a TGI (M14 melanoma) of 8.27 µM. The GI50 (PC-3 prostate) was 1.17 µM, the TGI (PC-3 prostate) was 13.9 µM and the GI50 (SF-295 CNS) was 0.347 µM. For the same compound, the TGI (SF-295 CNS) was 2.08 µM, the GI50 (HS 578T breast) was 1.5 µM and the TGI (HS 578T breast) was 9 µM. For the same compound, the GI50 (U251 CNS) was 0.497 µM, the TGI (U251 CNS) was 10.8 µM and the GI50 (EKVX NSCLC) was 4.84 µM. The TGI (EKVX NSCLC) was 41.7 µM, the GI50 (OVCAR-8 ovarian) was 2.33 µM and the TGI (OVCAR-8 ovarian) was 10.7 µM. It also gave a GI50 (T-47D breast) of 4.03 µM, a TGI (T-47D breast) of 32.7 µM and a GI50 (OVCAR-4 ovarian) of 1.82 µM. It also gave a TGI (OVCAR-4 ovarian) of 7.04 µM, a GI50 (SF-268 CNS) of 1.69 µM and a TGI (SF-268 CNS) of 21.7 µM. For the same compound, the GI50 (A498 renal) was 1.54 µM, the TGI (A498 renal) was 13 µM and the GI50 (K-562 leukemia) was 0.515 µM. The TGI (K-562 leukemia) was 18.1 µM, the GI50 (NCI-H226 lung) was 3.84 µM and the TGI (NCI-H226 lung) was 38.2 µM. For the same compound, the GI50 (UACC-257 melanoma) was 1.38 µM and the TGI (UACC-257 melanoma) was 4.16 µM.
